Data from publication PMC4941420, “A Rational Approach for the Identification of Non-Hydroxamate HDAC6-Selective Inhibitors” (Scientific Reports, 2016).

Legend:
HDAC4 = target: T1, HDAC4 (Homo sapiens, UniProt P56524); assay: In vitro enzymatic assay HDAC4 (Fluor de Lys); format: biochemical; conditions: average of at least 2 independent experiments in duplicates ± SEM
T1 construct: purchased Sigma Aldrich or Reaction Biology Corporation

PAMPA-BBB = format: in vitro ADME
Experimental: The PAMPA experiment was performed according to the PAMPA-BBB method described by Di et al.[46]. Test compounds were dissolved at 20 mM in DMSO and then diluted 200 times using a buffer solution at pH 7.4 (prepared according to the Geigy table, containing 54 mM Na2HPO4 and 13 mM KH2PO4). The resulting solutions, containing the compounds at 100 μM (0.5% DMSO), represented the donor solutions at the initial time. A total of 280 μL of the donor solution were added in each well of a Teflon® 96-well microplate (Millipore MSSACCEPTOR) forming the donor compartments. Each well of a hydrophobic polyvinylidene fluoride (PVDF) 96-well microtitre filter plate (Multiscreen® MAIPN4550, 70% porosity, pore diameter 0.45 μm, cross-sectional area 0.3 cm^2) was impregnated with 4 μL of a polar brain lipids solution (20 mg/mL in dodecane, PBL obtained from Avanti Polar Lipids), placed under a fume hood and subjected to constant shaking at 75 rpm for approximately 10 min to homogeneously lay the artificial membrane. […] Each tested compound was analysed in triplicate. The effective passive permeability value (Pe) was calculated according the two-way flux equations, obtained from the Fick’s law[47]. The calculated effective passive permeability values Pe were considered relevant only if RSD < 15% as quality control was fulfilled. […]

HDAC8 = target: T2, HDAC8 (Homo sapiens, UniProt Q9BY41); assay: In vitro enzymatic assay HDAC8 (Fluor de Lys); format: biochemical; conditions: average of at least 2 independent experiments in duplicates ± SEM
T2 construct: purchased Sigma Aldrich or Reaction Biology Corporation
T2 sequence (Q9BY41 1-377): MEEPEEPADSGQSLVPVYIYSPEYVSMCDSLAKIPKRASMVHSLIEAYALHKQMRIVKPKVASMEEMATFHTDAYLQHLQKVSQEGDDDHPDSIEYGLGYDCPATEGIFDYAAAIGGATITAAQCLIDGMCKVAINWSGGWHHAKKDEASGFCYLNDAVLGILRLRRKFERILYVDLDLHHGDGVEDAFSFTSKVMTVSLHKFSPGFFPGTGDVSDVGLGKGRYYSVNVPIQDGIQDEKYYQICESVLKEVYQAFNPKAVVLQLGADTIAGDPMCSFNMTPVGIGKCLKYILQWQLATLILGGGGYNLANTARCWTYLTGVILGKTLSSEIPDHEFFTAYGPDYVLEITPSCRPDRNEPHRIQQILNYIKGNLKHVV

[1] = system: histone H4 acetylation in HeLa cells; assay: Acetyl histone H4 Western blotting in HeLa cells; format: cell-based, human; conditions: 500 μM, 6 h
Experimental: The acetyl-α-tubulin sandwich ELISA Kit (Pathscan® #7204, Cell Signalling) was used to determine tubulin acetylation levels, and Western blotting was used to evaluate histone H4 acetylation, both methods applied to lysates of treated and non-treated HeLa cells (ATCC CCL-2). Cells were cultured in DMEM medium, 4.5 g/L glucose, L-glutamine (Invitrogen), supplemented with 10% heat-inactivated fetal bovine serum (FBS, Biowest), 100 units/mL penicillin, and 100 μg/mL streptomycin, and 1% non-essential amino acids (Invitrogen) at 37 °C with 5% CO2. Prior to ELISA experiments, cells were seeded into 6-well plates at 150,000 cells/well and transfected with the HDAC6-GFP construct (pEGFP.N1-HDAC6, Addgene)[58], using the Lipofectamine 2000 reagent (Invitrogen). Cells were then treated with test compounds, standards or vehicle (0.5% DMSO in culture medium) for 48 h. After the incubation time, cells were washed with cold DPBS (Invitrogen) and lysates were obtained by recovering cells in cold lysis buffer provided in the ELISA kit, supplemented with a protease inhibitor tablet (SigmaFast, Sigma Aldrich). Briefly, cells were harvested in DPBS and centrifuged. The cell pellet was suspended in 100 μL lysis buffer, vortexed, and kept on melting ice for 30 min. […] Protein concentration was determined by fluorimetry using the Qubit protein assay kit (Invitrogen). […]

T1 sequence (P56524 whole entry): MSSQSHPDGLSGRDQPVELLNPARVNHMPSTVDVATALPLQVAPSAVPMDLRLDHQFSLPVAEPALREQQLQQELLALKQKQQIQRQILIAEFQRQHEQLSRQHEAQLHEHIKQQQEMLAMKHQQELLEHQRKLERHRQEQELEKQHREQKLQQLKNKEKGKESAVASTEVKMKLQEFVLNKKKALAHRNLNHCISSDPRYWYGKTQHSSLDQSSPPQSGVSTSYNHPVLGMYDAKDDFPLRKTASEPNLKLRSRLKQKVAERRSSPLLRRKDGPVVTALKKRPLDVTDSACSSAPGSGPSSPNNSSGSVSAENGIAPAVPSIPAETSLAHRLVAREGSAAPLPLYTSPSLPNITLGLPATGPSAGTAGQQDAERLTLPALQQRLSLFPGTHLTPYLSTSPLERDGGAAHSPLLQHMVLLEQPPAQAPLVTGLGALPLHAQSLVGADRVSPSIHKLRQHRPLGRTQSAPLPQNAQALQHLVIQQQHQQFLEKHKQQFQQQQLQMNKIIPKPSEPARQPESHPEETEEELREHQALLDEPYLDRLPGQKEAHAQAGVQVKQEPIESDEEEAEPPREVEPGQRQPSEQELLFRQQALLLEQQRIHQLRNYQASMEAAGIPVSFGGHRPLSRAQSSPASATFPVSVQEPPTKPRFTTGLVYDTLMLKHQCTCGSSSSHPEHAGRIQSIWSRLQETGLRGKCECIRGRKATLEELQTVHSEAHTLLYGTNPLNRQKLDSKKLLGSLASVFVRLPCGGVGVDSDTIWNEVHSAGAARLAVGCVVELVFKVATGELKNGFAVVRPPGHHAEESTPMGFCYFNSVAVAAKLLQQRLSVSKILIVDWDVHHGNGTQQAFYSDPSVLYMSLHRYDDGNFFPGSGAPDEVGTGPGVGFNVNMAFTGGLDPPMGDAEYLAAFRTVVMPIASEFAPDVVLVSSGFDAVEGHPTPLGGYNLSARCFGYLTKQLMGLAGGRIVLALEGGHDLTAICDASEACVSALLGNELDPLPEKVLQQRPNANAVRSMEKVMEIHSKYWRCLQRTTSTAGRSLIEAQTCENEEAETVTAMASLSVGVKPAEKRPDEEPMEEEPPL

Compound: NNC(=O)c1ccc(COc2ccccc2Cl)cc1 [AK-14]
- IC50 (HDAC4): > 300 µM
- Papp at 18 h, 100 μM (PAMPA-BBB; PAMPA, pH 7.4, 100 μM donor, 18 hours, room temperature, read-out: effective passive permeability Pe (PAMPA-BBB)): 6.5 ×10⁻⁶ cm/s
- PAMPA-BBB classification (PAMPA-BBB; pH 7.4): CNS +
- IC50 (HDAC8): > 300 µM
- acetylation profile of histone H4 [1]: did not change
